Measurements reported in PubChem BioAssay AID1963864 (Molecular Pharmacology Branch, DTP, NCI, 2024).

System: KRAS PDC multicell spheroid viability
Assay: Anticancer human tumor 521955-158-R6-J3-PDC patient-derived pancreatic carcinoma cell line growth inhibition [KRAS2]
Settings: for IC50: curve of first compound; for viability, T/C: stronger effect = lower value
Summary of the method: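 KRAS-mutant tumor cells were grown as spheroids with HUVEC endothelial cells and human MSCs as stroma. Targeted agents were tested alone and with KRAS pathway inhibitors. Doses started at or near clinical Cmax, or 10 microM, descending half-log.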

[1] = second compound 0.1 µM, first compound 0.0316 µM
[2] = second compound 0.1 µM, first compound 0.1 µM
[3] = second compound 0.1 µM, first compound 0.316 µM
[4] = second compound 0.1 µM, first compound 1 µM
[5] = second compound 0.1 µM, first compound 3.16 µM
[6] = second compound 0.1 µM, first compound 10 µM
[7] = second compound 0.316 µM, first compound 0.0316 µM
[8] = second compound 0.316 µM, first compound 0.1 µM
[9] = second compound 0.316 µM, first compound 0.316 µM
[10] = second compound 0.316 µM, first compound 1 µM
[11] = second compound 0.316 µM, first compound 3.16 µM
[12] = second compound 0.316 µM, first compound 10 µM
[13] = second compound 1 µM, first compound 0.0316 µM
[14] = second compound 1 µM, first compound 0.1 µM
[15] = second compound 1 µM, first compound 0.316 µM
[16] = second compound 1 µM, first compound 1 µM
[17] = second compound 1 µM, first compound 3.16 µM
[18] = second compound 1 µM, first compound 10 µM
[19] = second compound 3.16 µM, first compound 0.0316 µM
[20] = second compound 3.16 µM, first compound 0.1 µM
[21] = second compound 3.16 µM, first compound 0.316 µM
[22] = second compound 3.16 µM, first compound 1 µM
[23] = second compound 3.16 µM, first compound 3.16 µM
[24] = second compound 3.16 µM, first compound 10 µM
[25] = second compound 10 µM, first compound 0.0316 µM
[26] = second compound 10 µM, first compound 0.1 µM
[27] = second compound 10 µM, first compound 0.316 µM
[28] = second compound 10 µM, first compound 1 µM
[29] = second compound 10 µM, first compound 3.16 µM
[30] = second compound 10 µM, first compound 10 µM
[31] = second compound 0.1 µM, first compound 0.000316 µM
[32] = second compound 0.1 µM, first compound 0.001 µM
[33] = second compound 0.1 µM, first compound 0.00316 µM
[34] = second compound 0.1 µM, first compound 0.01 µM
[35] = second compound 0.316 µM, first compound 0.000316 µM
[36] = second compound 0.316 µM, first compound 0.001 µM
[37] = second compound 0.316 µM, first compound 0.00316 µM
[38] = second compound 0.316 µM, first compound 0.01 µM
[39] = second compound 1 µM, first compound 0.000316 µM
[40] = second compound 1 µM, first compound 0.001 µM
[41] = second compound 1 µM, first compound 0.00316 µM
[42] = second compound 1 µM, first compound 0.01 µM
[43] = second compound 3.16 µM, first compound 0.000316 µM
[44] = second compound 3.16 µM, first compound 0.001 µM
[45] = second compound 3.16 µM, first compound 0.00316 µM
[46] = second compound 3.16 µM, first compound 0.01 µM
[47] = second compound 10 µM, first compound 0.000316 µM
[48] = second compound 10 µM, first compound 0.001 µM
[49] = second compound 10 µM, first compound 0.00316 µM
[50] = second compound 10 µM, first compound 0.01 µM
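Also: drug exposure lasted seven days.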
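For viability, T/C in this document: 100% = DMSO vehicle wells and lower means fewer viable cells.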

Compound	IC50 (second compound 0.1 µM) [nM]	IC50 (second compound 0.316 µM) [nM]	IC50 (second compound 1 µM) [nM]	IC50 (second compound 3.16 µM) [nM]	IC50 (second compound 10 µM) [nM]	viability, T/C [1] [%]	viability, T/C [2] [%]	viability, T/C [3] [%]	viability, T/C [4] [%]	viability, T/C [7] [%]	viability, T/C [8] [%]	viability, T/C [9] [%]	viability, T/C [10] [%]	viability, T/C [13] [%]	viability, T/C [14] [%]	viability, T/C [15] [%]	viability, T/C [19] [%]	viability, T/C [20] [%]	viability, T/C [25] [%]	viability, T/C [26] [%]	other results
CC(C)NCC(C(=O)N1CCN(c2ncnc3c2C(C)CC3O)CC1)c1ccc(Cl)cc1 (stereo not given) + CNCc1ccccc1-c1csc(C(C)Nc2nc(C)nc3cc(OC)c(OC)cc23)c1	> 10000	> 10000	> 10000	< 31.6	< 31.6	88.1	84.2	74.7	69.8	74.9	80	64.8	64.5	77.6	62.7	67.6	0.31	0.37	0.16	0.14	viability, T/C [5]: 80.4%; viability, T/C [6]: 70.2%; viability, T/C [11]: 66.7%; viability, T/C [12]: 63%; viability, T/C [16]: 64.3%; viability, T/C [17]: 66.9%; viability, T/C [18]: 61.4%; viability, T/C [21]: 0.26%; viability, T/C [22]: 0.31%; viability, T/C [23]: 1.96%; viability, T/C [24]: 0.86%; viability, T/C [27]: 0.24%; viability, T/C [28]: 0.25%; viability, T/C [29]: 0.16%; viability, T/C [30]: 0.27%
CC(C)n1nc(-c2ccc3oc(N)nc3c2)c2c(N)ncnc21 + CNCc1ccccc1-c1csc(C(C)Nc2nc(C)nc3cc(OC)c(OC)cc23)c1	77.2	41.3	64.8	< 0.316	< 0.316	63.3	46.2			54.3	42.1			54.6	47.2		1.57	1.6	0.16	0.24	viability, T/C [31]: 88.1%; viability, T/C [32]: 89.9%; viability, T/C [33]: 81.2%; viability, T/C [34]: 71.2%; viability, T/C [35]: 82.3%; viability, T/C [36]: 81.1%; viability, T/C [37]: 74.6%; viability, T/C [38]: 61.1%; viability, T/C [39]: 78.5%; viability, T/C [40]: 73%; viability, T/C [41]: 73.6%; viability, T/C [42]: 64.2%; viability, T/C [43]: 1.65%; viability, T/C [44]: 1.07%; viability, T/C [45]: 1.66%; viability, T/C [46]: 1.02%; viability, T/C [47]: 0.75%; viability, T/C [48]: 0.17%; viability, T/C [49]: 0.16%; viability, T/C [50]: 0.15%
CC1(C)CCC(CN2CCN(c3ccc(C(=O)NS(=O)(=O)c4ccc(NCC5CCOCC5)c([N+](=O)[O-])c4)c(Oc4cnc5[nH]ccc5c4)c3)CC2)=C(c2ccc(Cl)cc2)C1 + CNCc1ccccc1-c1csc(C(C)Nc2nc(C)nc3cc(OC)c(OC)cc23)c1	6690	5170	3810	< 31.6	< 31.6	98.5	98.1	94.6	97.1	96.8	90.5	90.2	84.2	83	83.6	84.4	0.59	1.4	0.22	0.61	viability, T/C [5]: 81.3%; viability, T/C [6]: 32.9%; viability, T/C [11]: 71%; viability, T/C [12]: 23.2%; viability, T/C [16]: 82.6%; viability, T/C [17]: 56.8%; viability, T/C [18]: 14.7%; viability, T/C [21]: 0.57%; viability, T/C [22]: 0.81%; viability, T/C [23]: 1.65%; viability, T/C [24]: 3.03%; viability, T/C [27]: 0.21%; viability, T/C [28]: 0.23%; viability, T/C [29]: 1.01%; viability, T/C [30]: 0.27%
CCN1CCN(Cc2ccc(Nc3ncc(F)c(-c4cc(F)c5nc(C)n(C(C)C)c5c4)n3)nc2)CC1 + CNCc1ccccc1-c1csc(C(C)Nc2nc(C)nc3cc(OC)c(OC)cc23)c1	> 1000	> 1000	317	< 3.16	< 3.16	70.5	67.1	72.1	102	74.1	68	67.5	80.2	63.5	53.8	54.8	0.51	0.75	0.3	0.21	viability, T/C [33]: 75.1%; viability, T/C [34]: 77.8%; viability, T/C [37]: 77.7%; viability, T/C [38]: 71.9%; viability, T/C [41]: 66.8%; viability, T/C [42]: 70.3%; viability, T/C [16]: 30.8%; viability, T/C [45]: 0.3%; viability, T/C [46]: 0.38%; viability, T/C [21]: 0.45%; viability, T/C [22]: 0.37%; viability, T/C [49]: 0.25%; viability, T/C [50]: 0.26%; viability, T/C [27]: 0.22%; viability, T/C [28]: 0.46%
COc1cc2nccc(Oc3ccc(NC(=O)C4(C(=O)Nc5ccc(F)cc5)CC4)cc3)c2cc1OC + CNCc1ccccc1-c1csc(C(C)Nc2nc(C)nc3cc(OC)c(OC)cc23)c1	> 10000	> 10000	2160	< 31.6	< 31.6	91.1	102	101	108	94.3	92.9	90.2	87.7	80.1	75.1	79.3	0.94	0.35	13.4	0.23	viability, T/C [5]: 125%; viability, T/C [6]: 133%; viability, T/C [11]: 119%; viability, T/C [12]: 109%; viability, T/C [16]: 83.9%; viability, T/C [17]: 32.2%; viability, T/C [18]: 38.4%; viability, T/C [21]: 0.42%; viability, T/C [22]: 0.24%; viability, T/C [23]: 0.24%; viability, T/C [24]: 0.24%; viability, T/C [27]: 0.2%; viability, T/C [28]: 0.21%; viability, T/C [29]: 0.2%; viability, T/C [30]: 0.28%
Cn1ncnc1[C@H]1c2n[nH]c(=O)c3cc(F)cc(c23)N[C@@H]1c1ccc(F)cc1 + CNCc1ccccc1-c1csc(C(C)Nc2nc(C)nc3cc(OC)c(OC)cc23)c1	> 100	> 100	> 100	< 0.316	< 0.316	85.9	90.6			80.5	72.2			78.4	70.2		1.22	1.42	0.21	0.26	viability, T/C [31]: 96.3%; viability, T/C [32]: 93.7%; viability, T/C [33]: 85.5%; viability, T/C [34]: 92.1%; viability, T/C [35]: 89.1%; viability, T/C [36]: 82.2%; viability, T/C [37]: 91.1%; viability, T/C [38]: 80%; viability, T/C [39]: 68.3%; viability, T/C [40]: 78.4%; viability, T/C [41]: 72.2%; viability, T/C [42]: 74.4%; viability, T/C [43]: 0.28%; viability, T/C [44]: 2.23%; viability, T/C [45]: 0.7%; viability, T/C [46]: 0.93%; viability, T/C [47]: 0.15%; viability, T/C [48]: 0.17%; viability, T/C [49]: 0.15%; viability, T/C [50]: 0.86%
